Read-outs that look alike come from different tables or passages of the source.
Experiments:
HEK293T-eGFP cells = assay: MTT cytotoxicity assay, 72 hours; assay type: cell-based
Protocol: Cells were cultured for 16–24 hours under standard culturing conditions (5% CO2, 37 °C). […] All dose ranges were added in duplicate, followed by 72 hours of incubation. Cell viability was determined using a tetrazolium based metabolic activity assay. Briefly, 5 µL of 3-(4.5-dimethylthiazol-2-yl)-2,5-diphenyltetrazolium bromide (MTT) solution (5 mg/mL MTT in sterile PBS) was added per well, and the microplates were incubated for 4 hours at 37°C and 5% CO2 in a cell culture incubator. Next, 40 µL of 10% SDS/0.01 M HCl was added per well, and the microplates were incubated for 24–72 hours at 37°C and 5% CO2 in a cell culture incubator. Subsequently the absorbance at 570 nm and background absorbance at 720 nm were measured using the Spectramax i3x (Molecular Devices, San Jose, USA). Subsequently, the absorbance values at 720 nm were subtracted from the absorbance values at 570 nm, and the corresponding values were used to plot dose-response curves.
The data was normalized to the DMSO-treated cells (defined as 100% viability) and the empty controls (defined as 0% viability).

[1] = tested on: eGFP locus in HEK293T-eGFP cells (HDR vs NHEJ); assay: CRISPR gene-editing outcome (eGFP to BFP conversion, flow cytometry) with CRISPR-Cas9 LNP; assay type: cell-based; conditions: up to three dosages based on IC50, single measurements
Protocol: (§1) Compounds were assessed in three dosages to assess the effects on gene-editing efficacy. […] Cells were incubated with these compounds for 24 hours prior to LNP addition. LNP were added to all wells at a final concentration of 20 nM SpCas9 to achieve robust genome editing. After 24 hours of co-incubation, medium was refreshed and cells were transferred to a 48 well plate for further culturing. Six days after adding compounds, cells were processed for flow cytometric analysis of the gene knock-out and gene-correction efficiencies. Briefly, a ssDNA template was used carrying two nucleotide mutations to convert the eGFP sequence to that of a blue fluorescent protein (BFP), as well as mutating the PAM sequence to ensure robust HDR. The sgRNA spacer sequence was 5’-[…]-3’, and the HDR template sequence was 5’-[…]-3’.
Flow cytometry using the BD FACS Canto II (Becton Dickinson) was used to determine cells undergoing NHEJ (eGFP and BFP negative population) and HDR (eGFP negative, BFP positive). Data analysis was performed using Flowlogic (version 8.7). Graphpad PRISM (version 9.3.1) was used for statistical analysis and preparing graphs.
(§2) The percentage of HDR relative to total gene editing in a given cell population (hereafter named Relative HDR (% of edited cells) was calculated by dividing the absolute HDR population by the sum of gene-edited cells found in the BFP+ and eGFP- gates. Absolute HDR (% of all cells) and Absolute NHEJ (% of all cells) were analyzed where appropriate. The gating strategy is given in S1 Fig in S1 File.

Hepa 1–6-eGFP cells = assay: MTS cell viability and morphology, 5 days; assay type: cell-based, murine; conditions: 0.3 µM, after 5 days, vs untreated control
Protocol: A narrower cytotoxicity range was determined by exposing cells to 0.1–1 µM of the tested compounds. 48 hours after treatment started, cells were washed and harvested using medium and one third of the volume was transferred to a fresh 96 well plate, analogous to how cells are treated during gene editing experiments. Subsequently, cells were cultured for another 3–5 days. In the case of 5 days, one third of the cells was again transferred into a fresh 96-well plate on day 3 to allow enough space for logarithmic cell growth during the additional incubation time. Cell viability was determined by the Promega One Step MTS assay (Promega, Madison, USA) using the manufacturer’s specifications. Relative cell viability for the Hepa 1–6-eGFP cells was calculated by normalizing the compound conditions to controls treated with DMSO only or DMSO plus gene editing formulations. For the HEK293T cells, the absolute absorbance at […] was used as it was more representative of the relative cell viability between samples.
Cell morphology was assessed using the Nikon Eclipse Ti2 microscope (Nikon Europe, Amstelveen, The Netherlands). Pictures were acquired at 10x magnification with a Nikon DSLR 10 camera using the same imaging settings within each experiment set (Nikon Europe, Amstelveen, The Netherlands).

[2] = tested on: eGFP locus in Hepa 1–6-eGFP cells (HDR vs NHEJ); assay: CRISPR gene-editing outcome (eGFP to BFP, flow cytometry) with ProDeliverIN CRISPR; assay type: cell-based, murine; conditions: Hepa 1–6-eGFP
Excerpt: Lipid nanoparticles (LNP) carrying SpCas9, sgRNA and HDR template DNA were formulated using the components and molecular ratios described previously. 1,1′-((2-(4-(2-((2-(bis(2-hydroxydodecyl)amino)ethyl)(2-hydroxydodecyl)amino)ethyl)piperazin-1-yl)ethyl)azanediyl)bis(dodecan-2-ol) (C12-200) was acquired from CordonPharma (Plankstadt, Germany) and used as the ionizable lipid in the formulation. 1,2-dioleoyl-sn-glycero-3-phosphoethanolamine (DOPE) was acquired from Lipoid GmbH (Steinhausen, Switzerland), Cholesterol and 1,2-dimyristoyl-rac-glycero-3-methoxypolyethylene glycol-2000 (PEG-DMG) were acquired from Sigma-Aldrich, and 1,2-dioleoyl-3-trimethylammonium-propane (DOTAP) was acquired from Merck (Darmstadt, Germany). LNP were produced using microfluidic mixing with the Dolomite Microfluidics system (Dolomite Microfluidics, Royston, United Kingdom) and herring-bone micromixer chip with hydrophilic coating (Dolomite Microfluidics, catalogue number 3200401). A total flow rate of 1.5 mL/min and flow rate ratio of 2:1 were used between an aqueous outer phase containing SpCas9, sgRNA and HDR template in nuclease free water, and the lipids in 100% ethanol in the inner phase, respectively. The resulting LNP were diluted 4 times in Dulbecco’s PBS (Sigma-Aldrich). In the experiments using the Hepa 1–6 eGFP cells, ProDeliverIN CRISPR (OZ Biosciences, San Diego, USA) was used as reported previously.
as §1
Flow cytometry using the BD FACS Canto II (Becton Dickinson) was used to determine cells undergoing NHEJ (eGFP and BFP negative population) and HDR (eGFP negative, BFP positive). […]
as §2

[3] = HEK293T-eGFP cells, 3 days of incubation, MTT, read-out: IC50
[4] = 72 h, HEK293T-eGFP cells, 3 days of incubation, MTT, read-out: IC50

Compound | IC50 (HEK293T-eGFP cells; [4]) | also measured
CC(C)c1c(-c2ccccc2)[nH]c2c(C#N)cnn2c1=O [CPI-455] |  | IC50 (HEK293T-eGFP cells; [3]): > 10000 nM
C/C=C1\NC(=O)[C@H]2CSSCC/C=C/[C@H](CC(=O)N[C@H](C(C)C)C(=O)N2)OC(=O)[C@H](C(C)C)NC1=O [Romidepsin] |  | IC50 (HEK293T-eGFP cells; 72 h): 16.4 nM; effect on relative HDR in the compound screen [1]: strongly inhibited HDR
Karonudib |  | IC50 (HEK293T-eGFP cells; [3]): 450 nM
C[C@@H](NC(=O)c1ncnc(N)c1Cl)c1ncc(C(=O)Nc2cc(C(F)(F)F)c(Cl)cn2)s1 [TAK-580] | > 10000 nM | 
Cc1cc(C)cc(C(=O)NOCCCCCC(=O)NO)c1 [LMK-235] |  | IC50 (HEK293T-eGFP cells; [3]): 1790 nM
C[C@]12CCCN1CC1=NNC(=O)c3cc(F)cc4[nH]c2c1c34 [Pamiparib] | > 10000 nM | 
CNc1nc(-c2nc3ccc(N4CCN(C)CC4)cc3n2Cc2ccccc2)cn2c(C)nnc12 [BI 894999] | 582 nM | 
C[C@@H](Oc1cc(-n2cnc3ccc(CN4CCN(C)CC4)cc32)sc1C(N)=O)c1ccccc1C(F)(F)F [GSK461364] | 8.35 nM | 
CN(C)C/C=C/C(=O)Nc1ccc(C(=O)N2CCC[C@@H](Nc3ncc(Cl)c(-c4c[nH]c5ccccc45)n3)C2)cc1 [THZ531] | 352 nM | 
Cc1sc2c(c1C)C(c1ccc(Cl)cc1)=N[C@@H](CC(=O)O)c1nnc(C)n1-2 [JQ-1 COOH] |  | IC50 (HEK293T-eGFP cells; [3]): > 10000 nM
CCn1cc(-c2ccnc3[nH]c(-c4cccc(CN(C)C)c4)cc23)c(-c2ccc(NC(=O)N(C)C)cc2)n1 [GSK1070916] | 1390 nM | effect on relative HDR in the compound screen [1]: did not show an effect toward relative HDR activation
Cc1[nH]c2ccccc2c1CCNCc1ccc(/C=C/C(=O)NO)cc1 [Panobinostat] | 30.6 nM | effect on relative HDR in the compound screen [1]: did not show the same effect
NS(=O)(=O)OC[C@@H]1C[C@@H](n2ccc3c(N[C@H]4CCc5ccccc54)ncnc32)C[C@@H]1O [Pevonedistat] | 4740 nM | 
Cc1sc2c(c1C)C(c1ccc(Cl)cc1)=N[C@@H](CC(=O)Nc1ccc(O)cc1)c1nnc(C)n1-2 [Birabresib] | 540 nM | 
O=C(c1cc(Cc2n[nH]c(=O)c3ccccc23)ccc1F)N1CCN(C(=O)C2CC2)CC1 [Olaparib] | > 10000 nM | 
CO[C@@H](C(=O)N1Cc2n[nH]c(NC(=O)c3ccc(N4CCN(C)CC4)cc3)c2C1)c1ccccc1 [Danusertib, danusertib] |  | cell morphology by microscopy (Hepa 1–6-eGFP cells): not disrupted; dosage with overall high efficacy and manageable toxicity [2]: 0.3 µM
C[C@@H]1CN(CC(=O)Nc2ccc3c(c2)Cc2cccc(-c4cc(=O)cc(N5CCOCC5)o4)c2S3)C[C@H](C)O1 [KU-60019] | > 10000 nM | 
C[C@@H]1COCCN1c1cc(C2([S@](C)(=N)=O)CC2)nc(-c2cc[nH]c3nccc2-3)n1 [Ceralasertib] | 1840 nM | 
CN(C)C/C=C/C(=O)Nc1ccc(C(=O)Nc2cccc(Nc3ncc(Cl)c(-c4c[nH]c5ccccc45)n3)c2)cc1 [THZ1] |  | IC50 (HEK293T-eGFP cells; [3]): 37.1 nM

Reference: article PMC12469161, “Anti-cancer compound screening identifies Aurora Kinase A inhibition as a means to favor CRISPR/Cas9 gene correction over knock-out” (PLOS One, 2025)
